Measured values from ChEMBL document CHEMBL5260817, “Polyamine-based analogs and conjugates as antikinetoplastid agents” (Eur J Med Chem, 2017).

Assays:
[1] = Inhibition of TryR (unknown origin) assessed as inhibition constant; parameters: species or system Bacteria
Trypanosoma brucei [2] = assay: Trypanocidal activity against Trypanosoma brucei trypomastigotes; type: functional, organism-based
Trypanosoma cruzi [3] = assay: Antiprotozoal activity against Trypanosoma cruzi epimastigotes; type: functional, organism-based; settings: Trypanosoma cruzi
Trypanothione reductase [4] = molecular target: Trypanothione reductase (Trypanosoma cruzi, UniProt P28593); assay: Inhibition of Trypanosoma cruzi TryR assessed as inhibition constant by TR assay
Trypanothione reductase (Trypanosoma cruzi, UniProt P28593), sequence (P28593 whole entry): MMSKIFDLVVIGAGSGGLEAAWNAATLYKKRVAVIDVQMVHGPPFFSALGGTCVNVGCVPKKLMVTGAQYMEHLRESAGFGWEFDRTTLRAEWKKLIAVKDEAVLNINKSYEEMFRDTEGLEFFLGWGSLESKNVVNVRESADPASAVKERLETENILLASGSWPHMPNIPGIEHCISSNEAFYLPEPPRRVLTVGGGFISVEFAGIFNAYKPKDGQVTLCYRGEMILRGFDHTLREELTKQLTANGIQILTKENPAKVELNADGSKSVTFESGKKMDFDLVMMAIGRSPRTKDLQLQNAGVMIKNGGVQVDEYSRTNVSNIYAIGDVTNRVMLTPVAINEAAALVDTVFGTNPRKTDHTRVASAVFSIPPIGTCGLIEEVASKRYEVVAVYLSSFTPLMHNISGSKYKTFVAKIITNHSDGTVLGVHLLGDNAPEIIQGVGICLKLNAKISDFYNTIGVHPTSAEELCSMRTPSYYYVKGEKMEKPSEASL

Trypanosoma cruzi [5] = assay: Antiprotozoal activity against Trypanosoma cruzi infected in mouse Peritoneal macrophage cell assessed as growth inhibition at 0.8 uM measured after 4 days relative to control; type: functional; settings: 96 h, time 4 day
[6] = Inhibition of Trypanosoma cruzi Fe - Superoxide dismutase
Trypanosoma cruzi [7] = assay: Antiprotozoal activity against Trypanosoma cruzi […] infected in mouse assessed as reduction in curative effect at 15 mg/kg relative to control; type: functional
Trypanosoma cruzi [8] = assay: Antiprotozoal activity against Trypanosoma cruzi […] infected in African green monkey Vero cells assessed as reduction in infection measured after 72 hrs relative to control; type: functional
Trypanosoma cruzi [9] = assay: Antiprotozoal activity against Trypanosoma cruzi […] measured after 72 hrs; type: functional, organism-based
[10] = system: Trypanosoma brucei rhodesiense; assay: Antiprotozoal activity against Trypanosoma brucei rhodesiense STIB900 strain assessed as trypanocidal activity; type: functional, organism-based
[11] = Anticancer activity against rat Myoblast cells assessed as cell growth inhibition; type: functional, cell-based
Trypanosoma brucei [12] = assay: Antitrypanosomal activity against bloodstream Trypanosoma brucei assessed as parasite growth inhibition; type: functional, organism-based
Leishmania donovani [13] = assay: Antiprotozoal activity against Leishmania donovani MHOM/PE/84/LC26 amastigotes infected in mouse J774.2 cells measured after 72 hrs; type: functional, organism-based; settings: J774.2, 72 h
Leishmania infantum [14] = assay: Antiprotozoal activity against Leishmania infantum MCAN/ES/2001/UCM-10 amastigotes infected in mouse J774.2 cells measured after 72 hrs; type: functional, organism-based; settings: J774.2, 72 h
HepG2 [15] = assay: Anticancer activity against human HepG2 cells assessed as cell growth inhibition; type: functional, cell-based
Trypanosoma brucei [16] = assay: Antiprotozoal activity against Trypanosoma […] STIB900 strain; type: functional, organism-based
[17] = Inhibition of Fulllength Trypanosoma brucei MetRS expressed in Escherichia coli in presence of ATP
[18] = Anticancer activity against human CRL-8155 cells assessed as cell growth inhibition; type: functional, cell-based; settings: CRL8155
[19] = Inhibition of Leishmania infantum TryS in presence of ATP by Malachite green staining based end-point assay
Leishmania infantum [20] = assay: Antiprotozoal activity against Leishmania infantum promastigotes; type: functional, organism-based
[21] = Inhibition of Trypanosoma brucei TryS
Leishmania donovani [22] = assay: Antiprotozoal activity against Leishmania donovani MHOM/IN/1978/UR6 strain promastigotes assessed as parasite growth inhibition; type: functional, organism-based
Leishmania donovani [23] = assay: Antiprotozoal activity against Leishmania donovani WR555 infected in mouse liver assessed as parasite growth inhibition at 10 mg/kg relative to control; type: functional
Leishmania donovani [24] = assay: Antiprotozoal activity against Leishmania donovani WR555 infected in mouse liver assessed as parasite growth inhibition at 15 mg/kg relative to control; type: functional
Leishmania donovani [25] = assay: Antiprotozoal activity against Leishmania donovani WR555 assessed as growth inhibition at 1 uM relative to control; type: functional
Trypanosoma brucei [26] = assay: Trypanocidal activity against Trypanosoma brucei K 243-As-10-3 strain; type: functional, organism-based
Trypanosoma brucei [27] = assay: Trypanocidal activity against Trypanosoma brucei K 269 strain; type: functional, organism-based
Trypanosoma brucei [28] = assay: Trypanocidal activity against Trypanosoma brucei K 243 strain; type: functional, organism-based
Trypanosoma brucei [29] = assay: Trypanocidal activity against Trypanosoma brucei Lab 110 strain; type: functional, organism-based
Trypanosoma cruzi [30] = assay: Antiprotozoal activity against Trypanosoma cruzi MG strain epimastigotes; type: functional, organism-based
Trypanosoma cruzi [31] = assay: Antiprotozoal activity against Trypanosoma cruzi JEM strain epimastigotes; type: functional, organism-based
Trypanosoma cruzi [32] = assay: Antiprotozoal activity against Trypanosoma cruzi CL-B5 strain epimastigotes; type: functional, organism-based
Trypanosoma cruzi [33] = assay: Antiprotozoal activity against Trypanosoma cruzi CL-B5 strain amastigotes; type: functional, organism-based
Trypanothione reductase [34] = molecular target: Trypanothione reductase (Trypanosoma brucei brucei, UniProt P39051); assay: Inhibition of Trypanosoma brucei TryR
Trypanothione reductase (Trypanosoma brucei brucei, UniProt P39051), sequence (P39051 whole entry): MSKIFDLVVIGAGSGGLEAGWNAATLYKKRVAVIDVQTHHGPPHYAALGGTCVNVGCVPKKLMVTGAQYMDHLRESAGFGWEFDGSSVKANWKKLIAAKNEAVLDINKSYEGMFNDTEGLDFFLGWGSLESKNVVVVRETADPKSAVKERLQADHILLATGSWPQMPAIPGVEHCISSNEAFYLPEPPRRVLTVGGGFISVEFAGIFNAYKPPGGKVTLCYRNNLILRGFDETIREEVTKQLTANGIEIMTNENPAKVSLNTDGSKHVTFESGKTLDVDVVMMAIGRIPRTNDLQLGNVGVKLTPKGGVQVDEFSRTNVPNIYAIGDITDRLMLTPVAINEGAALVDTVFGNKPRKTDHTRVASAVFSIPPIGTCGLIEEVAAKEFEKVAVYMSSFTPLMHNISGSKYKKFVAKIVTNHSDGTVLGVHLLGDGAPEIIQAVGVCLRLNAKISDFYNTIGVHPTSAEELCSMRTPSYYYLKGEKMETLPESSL

[35] = Inhibition of TryR (unknown origin) assessed as inhibition constant by FRET assay
[36] = Inhibition of Trypanosoma MetRS
[37] = Inhibition of Trypanosoma brucei MetRS
Trypanosoma brucei [38] = assay: Antiprotozoal activity against Trypanosoma brucei; type: functional, organism-based
Homo sapiens = species on record: Homo sapiens; assay: Inhibition of Superoxide dismutase (unknown origin) at 100 uM measured after 24 hrs relative to control
HepG2 [39] = assay: Anticancer activity against human HepG2 cells assessed as cell growth inhibition measured after 72 hrs by MTT assay; type: functional, cell-based; settings: HepG2, 72 h
Leishmania donovani [40] = assay: Antiprotozoal activity against Leishmania donovani MHOM/IN/00/DEV strain promastigotes assessed as growth inhibition measured after 72 hrs by MTT assay; type: functional, organism-based
Trypanosoma cruzi [41] = assay: Antiprotozoal activity against Trypanosoma cruzi infected in Rhesus monkey LLC-MK2 cells; type: functional, organism-based
Trypanosoma cruzi [42] = assay: Antiprotozoal activity against Trypanosoma cruzi infected in human Red blood cell; type: functional, organism-based; settings: Erythrocyte
Leishmania mexicana = assay: Antiprotozoal activity against Leishmania mexicana infected in mouse J774 cells; type: functional, organism-based
KB = assay: Anticancer activity against human KB cells assessed as cell growth inhibition; type: functional, cell-based
Leishmania donovani [43] = assay: Antiprotozoal activity against Leishmania donovani infected in mouse macrophage cell measured after 72 hrs; type: functional, organism-based
MRC5 = assay: Anticancer activity against human MRC5 cells assessed as cell growth inhibition measured after 24 hrs by MTT assay; type: functional, cell-based; settings: MRC5, 24 h
Trypanosoma cruzi [44] = assay: Antiprotozoal activity against Trypanosoma cruzi infected in mouse Peritoneal macrophage cell assessed as growth inhibition at 1.6 uM measured after 4 days relative to control; type: functional; settings: 96 h, time 4 day

Structure (SMILES): O=C1CC[C@]23/C=C/C(=O)NCCCCNCCCNC(=O)/C=C/c4ccc(c2c4)O[C@@H]3C1
- Ki [1]: 114 µM
- IC50 (Trypanosoma brucei [2]): 65 µM

Structure (SMILES): Clc1ccc(Sc2ccccc2)c(NCCN2CCCC2)c1
- IC50 (Trypanosoma cruzi [3]): 10 µM
- Ki (Trypanothione reductase [4]): 86 µM

Structure (SMILES): Clc1ccc(Sc2ccccc2)c(CNCCCN2CCN(CCCNCc3cc(Cl)ccc3Sc3ccccc3)CC2)c1
- inhibition at 0.8 µM (Trypanosoma cruzi [5]): 90%

Structure (SMILES): c1ccc(CN2CCN(Cc3ccccn3)CCN(Cc3ccccn3)CC2)nc1
- IC50 [6]: 18 µM
- inhibition in vivo at 15 mg/kg (Trypanosoma cruzi [7]): 33%
- inhibition (INH) (Trypanosoma cruzi [8]): 81%
- IC50 (Trypanosoma cruzi [9]): 7 µM

Structure (SMILES): CN(C)CCCNc1cc(Cl)ccc1Sc1ccc(C(F)(F)F)cc1
- IC50 [10]: 1.2 µM
- IC50 [11]: 9.8 µM

Structure (SMILES): Nc1nc(N)nc(NCCCNCCCCCCCNCCCNCCCNc2nc(N)nc(N)n2)n1
- IC50 (Trypanosoma brucei [12]): 24 µM

Structure (SMILES): CN1CCCNc2c(c(=O)c2=O)NCCCN(C)CCCNc2c(c(=O)c2=O)NCCC1
- IC50 (Leishmania donovani [13]): 20 µM
- IC50 (Leishmania infantum [14]): 20 µM

Structure (SMILES): O=C(NCCCNCc1cc(Cl)cc(Cl)c1)Nc1ccsc1
- IC50 (HepG2 [15]): 13 µM
- IC50 (Trypanosoma brucei [16]): 0.2 µM
- IC50 [17]: 0.028 µM
- IC50 [18]: 0.2 µM

Structure (SMILES): CNCCNC(=O)CN1C(=O)Cc2c([nH]c3ccc(C(F)(F)F)cc23)-c2ccccc21
- IC50 [19]: 0.35 µM
- IC50 (Leishmania infantum [20]): 112 µM
- IC50 [21]: 75 µM

Structure (SMILES): c1ccc(CNCCCNCCCCCCCNCCCNCc2ccccc2)cc1
- IC50 (Leishmania donovani [22]): 18 µM
- inhibition in vivo at 10 mg/kg (Leishmania donovani [23]): 65%
- inhibition in vivo at 15 mg/kg (Leishmania donovani [24]): 99.9%
- inhibition at 1 µM (Leishmania donovani [25]): 77%
- IC50 (Trypanosoma brucei [26]): 10 µM
- IC50 (Trypanosoma brucei [27]): 10 µM
- IC50 (Trypanosoma brucei [28]): 10 µM
- IC50 (Trypanosoma brucei [29]): 10 µM

Structure (SMILES): CCCCCCCCCCCCCCC(CN)NC(=O)OC(C)(C)C (configuration not stated)
- IC50 (Trypanosoma cruzi [30]): 10 µM
- IC50 (Trypanosoma cruzi [31]): 10 µM
- IC50 (Trypanosoma cruzi [32]): 2 µM
- IC50 (Trypanosoma cruzi [33]): 2 µM

Structure (SMILES): CN1CCN(CCCN2c3ccccc3Sc3ccc(Cl)cc32)CC1 [PROCHLORPERAZINE]
- IC50 (Trypanothione reductase [34]): 7.5 µM

Structure (SMILES): CN(C)CCNc1cc(Cl)ccc1Sc1ccccc1
- Ki (Trypanothione reductase [4]): 90 µM

Structure (SMILES): O=C(NCCCNCCCCNCCCNC(=O)c1cnc2cc(C(F)(F)F)ccc2c1O)c1cnc2cc(C(F)(F)F)ccc2c1O
- Ki [1]: 0.75 µM
- Ki [35]: 0.75 µM

Structure (SMILES): Fc1ccc2[nH]c(NCCCN[C@@H]3CCNc4c(Cl)cc(Cl)cc43)nc2n1
- Ki [36]: 0.002 µM
- IC50 [37]: 0.002 µM
- Ki [37]: 0.002 µM
- IC50 (Trypanosoma brucei [38]): 0.0004 µM

Structure (SMILES): O=C(NCCCCCCNC(=O)c1cccc(O)c1O)c1cccc(O)c1O
- inhibition (Homo sapiens): 80%

Structure (SMILES): c1ccc2c(c1)cc1c(-c3ccc(CNCCCN4CCN(CCCNCc5ccc(-c6nc7ccccc7n7c6cc6ccccc67)cc5)CC4)cc3)nc3ccccc3n12
- IC50 (HepG2 [39]): 1.56 µM
- IC50 (Leishmania donovani [40]): 0.57 µM

Structure (SMILES): CC(C)=CCC/C(C)=C/CNCCNC1C2CC3CC(C2)CC1C3 (configuration not stated) [SQ109]
- IC50 (Trypanosoma cruzi [41]): 0.5 µM
- IC50 (Trypanosoma cruzi [42]): 80 µM
- IC50 (Leishmania mexicana): 0.01 µM

Structure (SMILES): O=C(O)CCCCCN1CSC(=S)N(CCCCCCN2CN(CCCCCC(=O)O)CSC2=S)C1
- IC50 (KB): 16.1 µM
- IC50 (Leishmania donovani [43]): 6.74 µM
- IC50 (Trypanosoma brucei [38]): 0.36 µM

Structure (SMILES): Clc1ccc(CNCCCN2CCN(CCCNCc3ccc(Cl)cc3)CC2)cc1
- IC50 (MRC5): 4.5 µM
- inhibition at 1.6 µM (Trypanosoma cruzi [44]): 95%
